Experiments:
L1210 [1] = assay: Relative survival in L1210 murine lymphoid leukemia cells after subcutaneous administration on days1,4,6,8 at dose of 6 mg/kg; assay type: functional, Mus musculus
DNA topoisomerase 1 [2] = molecular target: T1, DNA topoisomerase 1 (Homo sapiens, UniProt P11387); assay: Inhibition of Topoisomerase I by cleavage complex formation in human HL-60 cells; assay type: cell-based
T1 sequence (P11387 whole entry): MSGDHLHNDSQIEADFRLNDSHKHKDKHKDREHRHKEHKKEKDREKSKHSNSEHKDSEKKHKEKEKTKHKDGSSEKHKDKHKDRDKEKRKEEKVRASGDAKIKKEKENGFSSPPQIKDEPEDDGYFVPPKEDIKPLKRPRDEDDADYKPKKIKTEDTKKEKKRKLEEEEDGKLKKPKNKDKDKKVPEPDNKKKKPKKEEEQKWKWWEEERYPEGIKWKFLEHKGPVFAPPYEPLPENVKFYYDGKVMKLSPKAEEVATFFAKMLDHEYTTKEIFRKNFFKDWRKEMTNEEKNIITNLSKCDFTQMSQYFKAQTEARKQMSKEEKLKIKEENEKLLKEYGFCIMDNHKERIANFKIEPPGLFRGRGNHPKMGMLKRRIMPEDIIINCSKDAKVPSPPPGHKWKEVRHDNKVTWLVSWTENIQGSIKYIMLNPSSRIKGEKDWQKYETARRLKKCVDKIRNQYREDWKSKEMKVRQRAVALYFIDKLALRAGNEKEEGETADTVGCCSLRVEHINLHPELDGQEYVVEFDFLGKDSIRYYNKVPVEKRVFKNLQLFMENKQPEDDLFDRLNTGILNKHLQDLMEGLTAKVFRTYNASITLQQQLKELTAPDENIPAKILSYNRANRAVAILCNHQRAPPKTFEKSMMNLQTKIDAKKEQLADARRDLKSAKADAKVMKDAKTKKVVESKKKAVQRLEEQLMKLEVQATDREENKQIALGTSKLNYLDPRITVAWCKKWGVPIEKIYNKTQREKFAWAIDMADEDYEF

Mus musculus [3] = assay: Highest active dose in L1210 lymphoid leukemic mice after i.v. drug dosing on hours 1 and 5 at dose range of 2.85-10 mg/kg; assay type: functional
Mus musculus [4] = assay: Relative survival in RAW117-H10 cells implanted mice in comparison to control at dose of 6 mg/kg; assay type: functional
[5] = Number of metastases in K1735-M2 murine melanoma cells after subcutaneous administration on days1,4,6,8 at dose of 6 mg/kg; assay type: functional, Mus musculus
Mus musculus [6] = assay: Number of L1210 mice cured after i.v. drug dosing on hours 1 and 5; assay type: functional
Mus musculus [7] = assay: Median survival time of treated/control animals x 100 after i.v. drug dosing on hours 1 and 5; assay type: functional
L1210 [8] = assay: Log of initial tumor cell population minus log of tumor cell population at end of treatment after i.v. drug dosing on hours 1 and 5; assay type: functional, Mus musculus
L1210 [9] = assay: Toxic dose in L1210 murine lymphoid leukemia at dose of 20 mg/kg; NT means not toxic; assay type: toxicity, organism-based; design: dose 20 mg/kg; settings: mouse, in vivo
DNA topoisomerase 1 [10] = molecular target: T1, DNA topoisomerase 1; assay: Inhibition of Topoisomerase I by cleavage complex formation in intact human HL-60 cells; assay type: cell-based
L1210 [11] = assay: Log of initial tumor cell population minus log of tumor cell population at end of treatment after iv drug dosing on hours 1 and 5; assay type: functional, Mus musculus
Mus musculus [12] = assay: Median survival time of treated/control animals x 100 after iv drug dosing on hours 1 and 5; assay type: functional
Mus musculus [13] = assay: Median survival time of treated/control animals x 100 after ip injection on days 1 and 5; assay type: functional
L1210 [14] = assay: Toxic dose in L1210 murine lymphoid leukemia after iv drug dosing on hours 1 and 5; NT means not toxic at 5 mg/Kg; assay type: toxicity, organism-based; settings: mouse, in vivo
Mus musculus [15] = assay: Highest active dose in L1210 lymphoid leukemic mice after ip injection on days 1 and 5 at dose of 10 mg/kg; assay type: functional; settings: route intraperitoneal
L1210 [16] = assay: Toxic dose in L1210 murine lymphoid leukemia after ip injection on days 1 and 5 at 10 mg/kg; NT means not toxic; assay type: toxicity, organism-based; design: dose 10 mg/kg, route intraperitoneal; settings: mouse, in vivo
Mus musculus [17] = assay: Highest active dose in L1210 lymphoid leukemic mice after iv drug dosing on hours 1 and 5 at dose range of 2.5-5 mg/kg; assay type: functional
L1210 [18] = assay: Log of initial tumor cell population minus log of tumor cell population at end of treatment after ip injection on days 1 and 5; assay type: functional, Mus musculus
Mus musculus [19] = assay: Relative survival as percent of control survival time in L1210 murine lymphoid leukemic mice after sc administration on days1,4,6,8 at dose of 4 mg/kg; assay type: functional; settings: route subcutaneous
[20] = Number of metastases in K1735-M2 murine melanoma after subcutaneous administration on days1,4,6,8 at dose of 4 mg/kg; assay type: functional, Mus musculus
HT-29 = assay: Tumor volume in HT-29 cells after subcutaneous administration on days 16,20,23,27,30,34,37,41,44,48 at dose of 4 mg/kg; assay type: functional, Homo sapiens
Mus musculus [21] = assay: Relative survival in RAW117-H10 cells implanted mice in comparison to control at dose of 4 mg/kg; assay type: functional

Compound: CCC(O)(C(=O)[O-])c1cc2n(c(=O)c1CO)Cc1cc3cc4c(cc3nc1-2)OCO4.[Na+] (racemic)
- T/C (L1210 [1]): 2.13
- IC50 (DNA topoisomerase 1 [2]): 550 nM
- Highest active dose (Mus musculus [3]): 10 mg/kg
- T/C (Mus musculus [4]): 1.32
- Control [5]: 4%
- Cures (Mus musculus [6]): 0
- T/C (Mus musculus [7]): 157%
- KE (L1210 [8]): 4.79
- Toxic dose (L1210 [9]): Non-toxic

Compound: CCC1(O)C(=O)OCc2c1cc1n(c2=O)Cc2cc3c(Cl)cccc3nc2-1 (racemic)
- IC50 (DNA topoisomerase 1 [2]): 190 nM

Compound: CCC1(O)C(=O)OCc2c1cc1n(c2=O)Cc2cc3c(NC(=O)CN)c4c(cc3nc2-1)OCO4 (racemic)
- IC50 (DNA topoisomerase 1 [2]): 260 nM
- IC50 (DNA topoisomerase 1 [10]): > 30000 nM

Compound: O=C1OCc2c(cc3n(c2=O)Cc2cc4ccccc4nc2-3)C1(O)CCO (racemic)
- IC50 (DNA topoisomerase 1 [2]): 9600 nM

Compound: CCC1(O)C(=O)OCc2c1cc1n(c2=O)Cc2cc3cc(OC(=O)N4CCC(N5CCCCC5)CC4)ccc3nc2-1 (configuration not stated)
- IC50 (DNA topoisomerase 1 [2]): 21000 nM

Compound: CC[C@@]1(O)C(=O)OCc2c1cc1n(c2=O)Cc2cc3c([N+](=O)[O-])c4c(cc3nc2-1)OCO4
- IC50 (DNA topoisomerase 1 [2]): 150 nM

Compound: CCC1(O)C(=O)OCc2c1cc1n(c2=O)Cc2cc3c(Cl)c(Cl)ccc3nc2-1 (configuration not stated)
- IC50 (DNA topoisomerase 1 [2]): 110 nM

Compound: CCC1(OC(=O)CN)C(=O)OCc2c1cc1n(c2=O)Cc2cc3c(N)cccc3nc2-1.Cl (racemic)
- KE (L1210 [11]): 1.67
- T/C (Mus musculus [12]): 168%
- IC50 (DNA topoisomerase 1 [2]): 5500 nM
- T/C (Mus musculus [13]): 132%
- IC50 (DNA topoisomerase 1 [10]): 6800 nM
- Toxic dose (L1210 [14]): Not toxic
- Highest active dose (Mus musculus [15]): 10 mg/kg
- Toxic dose (L1210 [16]): Non-toxic
- Highest active dose (Mus musculus [17]): 5 mg/kg
- KE (L1210 [18]): -1

Compound: CCC1(O)C(=O)OCc2c1cc1n(c2=O)Cc2cc3c(CN4CC4)c(O)ccc3nc2-1 (configuration not stated)
- IC50 (DNA topoisomerase 1 [2]): 1100 nM

Compound: CC[C@@]1(O)C(=O)OCc2c1cc1n(c2=O)Cc2cc3cc(O)ccc3nc2-1 [HYDROXYCAMPTOTHECIN]
- IC50 (DNA topoisomerase 1 [2]): 110 nM

Compound: CC[C@@]1(O)C(=O)OCc2c1cc1n(c2=O)Cc2cc3cc(C#N)ccc3nc2-1
- IC50 (DNA topoisomerase 1 [2]): 1900 nM

Compound: CCC1(O)C(=O)OCc2c1cc1n(c2=O)Cc2cc3c(Cl)c4c(cc3nc2-1)OCO4 (configuration not stated)
- IC50 (DNA topoisomerase 1 [2]): 61 nM

Compound: CCC1(O)C(=O)OCc2c1cc1n(c2=O)Cc2cc3cc(OC(=O)N4CCN(C)CC4)ccc3nc2-1 (configuration not stated)
- IC50 (DNA topoisomerase 1 [2]): 4400 nM

Compound: CC[C@@]1(O)C(=O)OCc2c1cc1n(c2=O)Cc2cc3cc([N+](=O)[O-])ccc3nc2-1
- IC50 (DNA topoisomerase 1 [2]): 640 nM

Compound: CCC1(O)C(=O)OCc2c1cc1n(c2=O)Cc2cc3c(N)c(Br)cc(Br)c3nc2-1 (racemic)
- IC50 (DNA topoisomerase 1 [2]): > 30000 nM

Compound: CC[C@@](O)(C(=O)[O-])c1cc2n(c(=O)c1CO)Cc1cc3cc4c(cc3nc1-2)OCO4.[Na+]
- IC50 (DNA topoisomerase 1 [2]): 840 nM
- T/C (Mus musculus [19]): 2.13
- Control [20]: 15%
- Control (HT-29): 40%
- T/C (Mus musculus [21]): 1.36

Compound: CCC1(O)C(=O)OCc2c1cc1n(c2=O)Cc2cc3cc(Br)ccc3nc2-1 (configuration not stated)
- IC50 (DNA topoisomerase 1 [2]): 130 nM

Compound: CCC1(O)C(=O)OCc2c1cc1n(c2=O)Cc2cc3c4c(ccc3nc2-1)OCO4 (racemic)
- IC50 (DNA topoisomerase 1 [2]): 3800 nM

Compound: CC[C@]1(O)C(=O)OCc2c1cc1n(c2=O)Cc2cc3c(N)c4c(cc3nc2-1)OCO4
- IC50 (DNA topoisomerase 1 [2]): > 30000 nM

Compound: CCC1(O)C(=O)OCc2c1cc1n(c2=O)Cc2cc3cc4c(cc3nc2-1)OCCO4 (racemic)
- IC50 (DNA topoisomerase 1 [2]): 470 nM

From ChEMBL document CHEMBL1126797 (J Med Chem, 1993)
